This is an account of results in US4885283A, “Phosphinic acid derivatives” (Hoffmann-La Roche Inc., priority 1986, dated 1989).

A word on the IC50: it is the concentration at which inhibition is half-maximal. A higher IC50 goes with weaker potency.

The target of experiment [1] is T1, collagenase obtained from a culture of human synovial fibroblasts (Homo sapiens, UniProt P03956).
T1 construct: endogenous in cells; host or cells: culture of human synovial fibroblasts (conditioned medium)
T1 sequence (P03956 100-469): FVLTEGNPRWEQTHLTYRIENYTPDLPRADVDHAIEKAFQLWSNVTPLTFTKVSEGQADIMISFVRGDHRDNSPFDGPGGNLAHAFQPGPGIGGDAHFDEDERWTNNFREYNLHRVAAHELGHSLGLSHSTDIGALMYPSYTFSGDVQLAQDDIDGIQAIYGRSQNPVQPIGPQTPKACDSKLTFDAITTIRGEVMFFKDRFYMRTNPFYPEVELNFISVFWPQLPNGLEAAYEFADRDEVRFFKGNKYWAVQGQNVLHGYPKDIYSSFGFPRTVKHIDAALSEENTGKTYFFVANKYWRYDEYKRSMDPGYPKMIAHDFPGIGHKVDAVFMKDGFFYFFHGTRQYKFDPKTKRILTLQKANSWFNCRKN
The experiment in a line: in vitro inhibition of collagenase (microtitre plate assay, 14C-acetylated collagen type I from rat tail tendons as substrate). The note with it: human synovial fibroblast collagenase, trypsin-activated; 14C-acetylated collagen type I substrate. The format is biochemical. The method, then: Collagenase activity was measured using ^14 C-acetylated collagen type I from rat tail tendons as the substrate and employing the microtitre plate assay method of Johnson-Wint, B. Anal. Biochem. (1980), 104, 175. The IC50 is that concentration of a compound of formula I of the invention in the enzyme digestion which reduces substrate cleavage and solubilization to 50% of that achieved by the enzyme alone.
The results obtained in the foregoing test with representative compounds of this invention are compiled in the Table I hereinafter: […]

The test system of experiment [2] is female rats. Kind of experiment: in vivo type II collagen/Freund's incomplete adjuvant rat test: hind paw inflammation and radiological change. The note with it: 20 mg kg^-1 twice daily for 12 days via jugular vein catheter. On the procedure: Groups of female rats received an intradermal injection into the shaved backs of 10×0.1 ml of an emulsion of type II collagen/Freund's incomplete adjuvant. Ten days later the test compound was administered twice daily at a dosage of 20 mg kg^-1 via indwelling jugular vein catheters; dosing was continued for 12 days. Groups of rats which received the intradermal injection, but which were not treated with test compounds, served as the control. The incidence of hind paw inflammation was assessed visually at intervals throughout the test and was expressed as the proportion of the group showing signs of erythema and/or swelling. Radiological change in the ankle region of the hind paws was assessed at the termination of the test and was quantified using an arbitrary scale of from 0=normal to 6=severe change, results being expressed as group means. Statistical analysis was performed using the Mann-Whitney "U" test.

With `CC(C)CC(CP(=O)(O)CN1C(=O)c2cccc3cccc(c23)C1=O)C(=O)NC1CCCCCCCCCCNC1=O` (single isomer, unassigned) [Compound D, [(R or S)-4-methyl-2-[[(R or S)-2-oxo-3-azacyclotridecyl]carbamoyl]pentyl](1,8-naphthalenedicarboximidomethyl)phosphinic acid], the IC50 in experiment [1] worked out at 110 nM. Besides, the “Inflammation day 4” value in experiment [2] (proportion of group showing erythema and/or swelling of hind paw, Control 8/11) is on record as 3/12. For the same compound, the “Radiological scores, Tarsus” value in experiment [2] (scale 0=normal to 6=severe change, group mean at termination, Control 1.75 ± 0.45) was 0.64 ± 0.37. Also, in experiment [2] (scale 0=normal to 6=severe change, group mean at termination, Control 2.28 ± 0.53), the “Radiological scores, Talus” value came out at 0.86 ± 0.34.
In the case of `CNC(=O)[C@H](CC(C)C)NC(=O)C(CC(C)C)CP(=O)(O)CN1C(=O)c2cccc(N)c2C1=O` (mixture of isomers) [Compound B, [(3-aminophthalimido)methyl][(RS)-4-methyl-2-[[(S)-3-methyl-1-(methylcarbamoyl)butyl]carbamoyl]pentyl]phosphinic acid], in experiment [1], the IC50 turned out to be 600 nM.
`CC(C)CC(CP(=O)(O)CNC(=O)[C@H](CC(C)C)NC(=O)[C@@H]1CCCN1C(=O)OCc1ccccc1)C(=O)N[C@@H](CC(C)C)C(=O)N[C@@H](C)C(=O)O` (single isomer, unassigned) [Compound A, N-[N-[(R or S)-2-[[[[[N-[1-[(benzyloxy)carbonyl]-L-prolyl]-L-leucyl]amino]methyl]hydroxyphosphinyl]methyl]-4-methylvaleryl]-L-leucyl]-L-alanine] gave an IC50 in experiment [1] of 56 nM.
On to `CC(C)C[C@@H](CP(=O)(O)Cn1c(=O)[nH]c2ccccc2c1=O)C(=O)N[C@@H]1CCCCCCCCCCNC1=O` (single isomer, unassigned) [Compound E, [[1,4-dihydro-2,4-dioxo-3(2H)-quinazolinyl]methyl][(R or S)-4-methyl-2-[[(R or S)-2-oxo-3-azacyclotridecyl]carbamoyl]pentyl]phosphinic acid], for which the IC50 in experiment [1] turned out to be 220 nM.
On the same count and under the same terms, as for `CNC(=O)[C@H](CC(C)C)NC(=O)C(CC(C)C)CP(=O)(O)CN1C(=O)c2cccc3cccc(c23)C1=O` (stereo partly drawn) [Compound C, [(RS)-4-methyl-2-[[(S)-3-methyl-1-(methylcarbamoyl)butyl]carbamoyl]pentyl](1,8-naphthalendicarboximidomethyl)phosphinic acid], the figure is 160 nM.
